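96-well plates; 48 h exposure; 5 concentrations. Endpoints by linear interpolation between flanking doses. Not reached: highest tested concentration assigned. Definition used: TGI = concentration required for complete inhibition of growth.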
Columns and labels:
Assay in all cases: inhibition of tumour cell growth, NCI panel, 48 h
HT29 colon = system: HT29 colon
NCI-H522 lung = system: NCI-H522 lung
OVCAR-5 ovarian = system: OVCAR-5 ovarian
SR leukemia = system: SR leukemia
UACC-62 melanoma = system: UACC-62 melanoma
HL-60(TB) leukemia = system: HL-60(TB) leukemia
K-562 leukemia = system: K-562 leukemia
OVCAR-3 ovarian = system: OVCAR-3 ovarian
SF-295 CNS = system: SF-295 CNS
SN12C renal = system: SN12C renal
SK-MEL-2 melanoma = system: SK-MEL-2 melanoma
EKVX NSCLC = system: EKVX NSCLC
SF-268 CNS = system: SF-268 CNS
TK-10 renal = system: TK-10 renal
SNB-19 CNS = system: SNB-19 CNS
OVCAR-8 ovarian = system: OVCAR-8 ovarian
CAKI-1 renal = system: CAKI-1 renal
HOP-18 NSCLC = system: HOP-18 NSCLC
HOP-62 NSCLC = system: HOP-62 NSCLC
COLO 205 colon = system: COLO 205 colon
UO-31 renal = system: UO-31 renal
A549 NSCLC = system: A549 NSCLC
U251 CNS = system: U251 CNS
M14 melanoma = system: M14 melanoma
KM12 colon = system: KM12 colon
ACHN renal = system: ACHN renal
SNB-75 CNS = system: SNB-75 CNS
KM20L2 colon = system: KM20L2 colon
DMS 273 small cell lung = system: DMS 273 small cell lung
IGROV1 ovarian = system: IGROV1 ovarian
NCI-H226 lung = system: NCI-H226 lung
XF 498 CNS = system: XF 498 CNS
MOLT-4 leukemia = system: MOLT-4 leukemia
DLD-1 colon = system: DLD-1 colon
LXFL 529 NSCLC = system: LXFL 529 NSCLC
NCI-H460 lung = system: NCI-H460 lung
CCRF-CEM leukemia = system: CCRF-CEM leukemia
RPMI-8226 leukemia = system: RPMI-8226 leukemia
SNB-78 CNS = system: SNB-78 CNS
HOP-92 NSCLC = system: HOP-92 NSCLC
UACC-257 melanoma = system: UACC-257 melanoma
OVCAR-4 ovarian = system: OVCAR-4 ovarian
SK-MEL-28 melanoma = system: SK-MEL-28 melanoma
HCT-116 colon = system: HCT-116 colon
HCT-15 colon = system: HCT-15 colon
LOX IMVI melanoma = system: LOX IMVI melanoma
HCC-2998 colon = system: HCC-2998 colon
NCI-H23 lung = system: NCI-H23 lung
786-0 renal = system: 786-0 renal
SK-OV-3 ovarian = system: SK-OV-3 ovarian
M19-MEL melanoma = system: M19-MEL melanoma
SF-539 CNS = system: SF-539 CNS
SK-MEL-5 melanoma = system: SK-MEL-5 melanoma
RXF 393 renal = system: RXF 393 renal
RXF-631 renal = system: RXF-631 renal
SW-620 colon = system: SW-620 colon
MALME-3M melanoma = system: MALME-3M melanoma
A498 renal = system: A498 renal
DMS 114 small cell lung = system: DMS 114 small cell lung

Cc1ccc(S(=O)(=O)O/N=C2\CCC\C2=C/c2ccccc2)cc1
TGI (HT29 colon): 60.1 µM | TGI (NCI-H522 lung): 37.8 µM | TGI (OVCAR-5 ovarian): 42.6 µM | TGI (SR leukemia): 43.4 µM | TGI (UACC-62 melanoma): 27.2 µM | TGI (HL-60(TB) leukemia): > 100 µM | TGI (K-562 leukemia): > 100 µM | TGI (OVCAR-3 ovarian): 32.8 µM | TGI (SF-295 CNS): 50.1 µM | TGI (SN12C renal): > 100 µM | TGI (SK-MEL-2 melanoma): 30.8 µM | TGI (EKVX NSCLC): 35.3 µM | TGI (SF-268 CNS): 27.7 µM | TGI (TK-10 renal): 30.4 µM | TGI (SNB-19 CNS): > 100 µM | TGI (OVCAR-8 ovarian): > 100 µM | TGI (CAKI-1 renal): 36.8 µM | TGI (HOP-18 NSCLC): 34.6 µM | TGI (HOP-62 NSCLC): > 100 µM | TGI (COLO 205 colon): 29.8 µM | TGI (UO-31 renal): 42.5 µM | TGI (A549 NSCLC): > 100 µM | TGI (U251 CNS): 88.6 µM | TGI (M14 melanoma): 47.4 µM | TGI (KM12 colon): 32.6 µM | TGI (ACHN renal): 23.3 µM | TGI (SNB-75 CNS): 44.1 µM | TGI (KM20L2 colon): 49 µM | TGI (DMS 273 small cell lung): > 100 µM | TGI (IGROV1 ovarian): > 100 µM | TGI (NCI-H226 lung): 37.7 µM | TGI (XF 498 CNS): 33.3 µM | TGI (MOLT-4 leukemia): 29.2 µM | TGI (DLD-1 colon): 46.3 µM | TGI (LXFL 529 NSCLC): 83.9 µM | TGI (NCI-H460 lung): 47.9 µM | TGI (CCRF-CEM leukemia): > 100 µM | TGI (RPMI-8226 leukemia): 37.3 µM | TGI (SNB-78 CNS): 13 µM | TGI (HOP-92 NSCLC): 34.5 µM | TGI (UACC-257 melanoma): 31.4 µM | TGI (OVCAR-4 ovarian): 58.6 µM | TGI (SK-MEL-28 melanoma): 24.1 µM | TGI (HCT-116 colon): 25.3 µM | TGI (HCT-15 colon): 73.8 µM | TGI (LOX IMVI melanoma): > 100 µM | TGI (HCC-2998 colon): 31.6 µM | TGI (NCI-H23 lung): 38.9 µM | TGI (786-0 renal): 67.9 µM | TGI (SK-OV-3 ovarian): > 100 µM | TGI (M19-MEL melanoma): 44.3 µM | TGI (SF-539 CNS): 43.5 µM | TGI (SK-MEL-5 melanoma): 28.4 µM | TGI (RXF 393 renal): 44 µM | TGI (RXF-631 renal): 36.5 µM | TGI (SW-620 colon): > 100 µM

Nc1nc[n+](Cc2ccccc2CCO)c2nc[nH]c12
TGI (HT29 colon): > 100 µM | TGI (NCI-H522 lung): > 100 µM | TGI (OVCAR-5 ovarian): > 100 µM | TGI (UACC-62 melanoma): > 100 µM | TGI (HL-60(TB) leukemia): > 100 µM | TGI (K-562 leukemia): > 100 µM | TGI (OVCAR-3 ovarian): > 100 µM | TGI (SF-295 CNS): > 100 µM | TGI (SN12C renal): > 100 µM | TGI (SK-MEL-2 melanoma): > 100 µM | TGI (MALME-3M melanoma): > 100 µM | TGI (EKVX NSCLC): > 100 µM | TGI (SF-268 CNS): > 100 µM | TGI (TK-10 renal): > 100 µM | TGI (SNB-19 CNS): > 100 µM | TGI (OVCAR-8 ovarian): > 100 µM | TGI (CAKI-1 renal): > 100 µM | TGI (HOP-18 NSCLC): > 100 µM | TGI (HOP-62 NSCLC): > 100 µM | TGI (COLO 205 colon): > 100 µM | TGI (UO-31 renal): > 100 µM | TGI (A549 NSCLC): > 100 µM | TGI (U251 CNS): > 100 µM | TGI (M14 melanoma): > 100 µM | TGI (KM12 colon): > 100 µM | TGI (ACHN renal): > 100 µM | TGI (SNB-75 CNS): > 100 µM | TGI (KM20L2 colon): > 100 µM | TGI (DMS 273 small cell lung): > 100 µM | TGI (A498 renal): > 100 µM | TGI (IGROV1 ovarian): > 100 µM | TGI (NCI-H226 lung): > 100 µM | TGI (XF 498 CNS): > 100 µM | TGI (MOLT-4 leukemia): > 100 µM | TGI (LXFL 529 NSCLC): > 100 µM | TGI (NCI-H460 lung): > 100 µM | TGI (CCRF-CEM leukemia): > 100 µM | TGI (RPMI-8226 leukemia): > 100 µM | TGI (HOP-92 NSCLC): > 100 µM | TGI (UACC-257 melanoma): > 100 µM | TGI (OVCAR-4 ovarian): > 100 µM | TGI (SK-MEL-28 melanoma): > 100 µM | TGI (HCT-15 colon): > 100 µM | TGI (LOX IMVI melanoma): > 100 µM | TGI (NCI-H23 lung): > 100 µM | TGI (786-0 renal): > 100 µM | TGI (SK-OV-3 ovarian): > 100 µM | TGI (M19-MEL melanoma): > 100 µM | TGI (SF-539 CNS): > 100 µM | TGI (SK-MEL-5 melanoma): > 100 µM | TGI (RXF 393 renal): > 100 µM | TGI (RXF-631 renal): > 100 µM | TGI (SW-620 colon): > 100 µM | TGI (DMS 114 small cell lung): > 100 µM
